One assay relates to bacteria. The assay is described as follows: Binding of targeting peptides to microorganisms (Table 3). To be noted: preferably 1x PBS; for Target(s): microorganism bound by the targeting peptide, binding in aqueous buffers chosen by peptide solubility; for Target(s) (microorganisms bound by the targeting peptide): peptide binding in aqueous buffers that varied depending on peptide solubility.

The next assay concerns microorganisms. The assay is described as follows: Morphology, biofilm and growth disruption by peptides (Table 5). The format is cell-based. On the set-up: key: A: Peptide aggregates; B: Less hyphal formation; Clumps; Diffuse clumps and small polyps; F: Diffuse growth; H: Thin; I: Growth inhibition; Microcolony formation; Rippled; Small polyps; Thick; W: Halo formation on top, microlonies on bottom. The source says:
In certain embodiments peptides that induce alterations in phenotype or other biological activities can also be used as antimicrobial effector moieties.

Entries after “also recorded” stand apart in the source; their conditions may differ.

For “PF-212 (NDSKASN; Peptide with targeting and/or antimicrobial activity)”, the “Target(s)” value in the assay on bacteria is on record as “M. luteus; also recorded: P. aeruginosa”. In addition, the “Organism, effect” value in the assay with microorganisms (M. luteus) is “M. luteus (M)”.
Take “PF-215 (ELKITNYNVNTVLYRYYKWGNDLCE; Peptide with targeting and/or antimicrobial activity)”: in the assay with bacteria, the “Target(s)” value was “S. epidermidis; also recorded: M. luteus; also recorded: P. aeruginosa; also recorded: A. baumannii”. Also, the “Organism, effect” value in the assay on microorganisms (M. luteus) was “M. luteus (T)”.
For “PF-224 (DYFYITLSQKNTF; Peptide with targeting and/or antimicrobial activity)” the same measures were “S. epidermidis; also recorded: P. aeruginosa; also recorded: A. baumannii” and “M. luteus (T)”.
On to “PF-233 (DANAMARTTIAIVYILALIALTISYSL; Peptide with targeting and/or antimicrobial activity)”, for which the “Target(s)” value in the assay with bacteria is on record as “S. epidermidis; also recorded: M. luteus; also recorded: P. aeruginosa; also recorded: A. baumannii”. Moreover, the “Organism, effect” value in the assay with microorganisms (S. epidermidis) is listed as “S. epidermidis (C)”.
For “PF-234 (RTPYILRS; Peptide with targeting and/or antimicrobial activity)”, the “Target(s)” value in the assay with bacteria is “S. epidermidis; also recorded: M. luteus”. For the same substance, in the assay on microorganisms (M. luteus), the “Organism, effect” value is “M. luteus (T)”.
Consider “PF-235 (GIPFSKPHKRQVNYMKSDVLAYIEQNKMAHTA; Peptide with targeting and/or antimicrobial activity)”, for which the “Target(s)” value in the assay with bacteria was “S. epidermidis; also recorded: M. luteus”. In addition, the “Organism, effect” value with microorganisms (M. luteus) is recorded as “M. luteus (T)”.
For “PF-249 (INSRYKISF; Peptide with targeting and/or antimicrobial activity)”, in the assay on bacteria, the “Target(s)” value is on record as “S. epidermidis; also recorded: M. luteus”. The “Organism, effect” value in the assay on microorganisms (M. luteus) is on record as “M. luteus (R)”.
For “PF-255 (DHKINESQHNPFRSDSNKQNVDFF; Peptide with targeting and/or antimicrobial activity)” the same measures were “P. aeruginosa” and “M. luteus (M)”.
With “PF-270 (MYLTPYAWIAVGSIFAFSVTTIKIGDQNDEKQKSHKNDVHKR; Peptide with targeting and/or antimicrobial activity)”, the “Target(s)” value in the assay on bacteria is “S. epidermidis; also recorded: M. luteus; also recorded: P. aeruginosa”. Besides, the “Organism, effect” value with microorganisms (M. luteus) is “M. luteus (H)”.
For the substance “PF-271 (AAQPQTTSP; Peptide with targeting and/or antimicrobial activity)”, the “Target(s)” value in the assay on bacteria is listed as “S. epidermidis; also recorded: M. luteus; also recorded: P. aeruginosa; also recorded: A. baumannii”. Further, the “Organism, effect” value in the assay on microorganisms (M. luteus) is reported as “M. luteus (T)”.
Consider “PF-273 (LVGALLIFVALIYMVLKGNADKN; Peptide with targeting and/or antimicrobial activity)”, for which the “Target(s)” value in the assay with bacteria is “S. epidermidis; also recorded: M. luteus; also recorded: P. aeruginosa; also recorded: A. baumannii”. In addition, in the assay with microorganisms (S. epidermidis), the “Organism, effect” value is listed as “S. epidermidis (C)”.
Take “PF-276 (LDLALSTNSLNLEGFSF; Peptide with targeting and/or antimicrobial activity)”: in the assay with bacteria, the “Target(s)” value is listed as “S. epidermidis”. Also, the “Organism, effect” value with microorganisms (M. luteus) is recorded as “M. luteus (M)”.
“PF-292 (SFVSTTVRLIFEESKRYKF; Peptide with targeting and/or antimicrobial activity)”: the “Target(s)” value with bacteria is on record as “S. epidermidis; also recorded: B. subtilis; also recorded: B. fragilis”. Besides, the “Organism, effect” value in the assay on microorganisms (B. subtilis) is reported as “B. subtilis (C)”; with microorganisms (S. epidermidis) it was “S. epidermidis (C)”.
As for “PF-294 (DFLVNFLWFKGELNWGKKRYK; Peptide with targeting and/or antimicrobial activity)”, in the assay with bacteria, the “Target(s)” value was “S. epidermidis; also recorded: C. difficile”. The “Organism, effect” value in the assay on microorganisms (S. epidermidis) is on record as “S. epidermidis (C)”.
Take “PF-297 (ISKGIDDIVYVINKILSIGNIFKIIKRK; Peptide with targeting and/or antimicrobial activity)”: the “Target(s)” value with bacteria is recorded as “S. epidermidis; also recorded: B. subtilis; also recorded: B. fragilis”. For the same substance, the results for the “Organism, effect” value in the assay with microorganisms (B. subtilis) and in the assay on microorganisms (S. epidermidis) were “B. subtilis (C)” and “S. epidermidis (C)”, respectively.
For the substance “PF-301 (GIVLIGLKLIPLLANVLN; Peptide with targeting and/or antimicrobial activity)”, the “Target(s)” value in the assay with bacteria was “C. difficile”. For the same substance, the “Organism, effect” value in the assay with microorganisms (B. subtilis) was “B. subtilis (C)”; with microorganisms (S. epidermidis), “S. epidermidis (C)”.
As to “PF-313 (YITSHKNARAIIKKFERDEILEEVITHYLNRK; Peptide with targeting and/or antimicrobial activity)”, the “Target(s)” value in the assay with bacteria is “S. epidermidis; also recorded: C. difficile”. Moreover, the “Organism, effect” value in the assay with microorganisms (S. epidermidis) is given as “S. epidermidis (C)”.
“PF-344 (DERLPEAKAIRNFNGSVMVLGR; Peptide with targeting and/or antimicrobial activity)”: the “Target(s)” value with bacteria was “B. subtilis; also recorded: C. jejuni”. Moreover, the “Organism, effect” value with microorganisms (E. coli) was “E. coli (A)”.
“PF-350 (LAVILRAIVY; Peptide with targeting and/or antimicrobial activity)”: the “Target(s)” value in the assay on bacteria is reported as “S. epidermidis; also recorded: E. coli; also recorded: E. faecalis; also recorded: C. jeikeium; also recorded: C. jejuni”. Also, the results for the “Organism, effect” value in the assay on microorganisms (E. coli), in the assay on microorganisms (MRSA) and in the assay with microorganisms (S. epidermidis) were “E. coli (C)”, “MRSA (C)” and “S. epidermidis (C)”, respectively.
As to “PF-395 (YCVPLGNMGNMNNKIW; Peptide with targeting and/or antimicrobial activity)”, the “Target(s) (microorganisms bound by the targeting peptide)” value with bacteria is listed as “S. epidermidis; also recorded: E. coli; also recorded: P. aeruginosa; also recorded: S. pneumoniae; also recorded: E. faecalis; also recorded: C. jeikeium; also recorded: C. jejuni”. The “Organism, effect” value was “E. coli (R)” in the assay on microorganisms (E. coli), “MRSA (C)” in the assay with microorganisms (MRSA) and “S. epidermidis (C)” in the assay on microorganisms (S. epidermidis).
On to “PF-396 (LIYTILASLGVLTVLQAILGREPKAVKA; Peptide with targeting and/or antimicrobial activity)”, for which, in the assay on bacteria, the “Target(s) (microorganisms bound by the targeting peptide)” value is listed as “S. epidermidis; also recorded: E. coli; also recorded: P. aeruginosa; also recorded: C. albicans; also recorded: E. faecalis; also recorded: C. jeikeium”. The “Organism, effect” value is recorded as “E. coli (C)” in the assay with microorganisms (E. coli), “E. faecalis (C)” in the assay with microorganisms (E. faecalis), “MRSA (C)” with microorganisms (MRSA) and “S. epidermidis (S)” with microorganisms (S. epidermidis).
Regarding “PF-397 (VEDLMEDLNA; Peptide with targeting and/or antimicrobial activity)”, the “Target(s) (microorganisms bound by the targeting peptide)” value in the assay on bacteria was “S. epidermidis and MRSA and S. pneumoniae and E. faecalis and C. jejuni”. In the assay on microorganisms (S. epidermidis), the “Organism, effect” value is “S. epidermidis (C)”.
Take “PF-401 (YWLSRVTTGHSFAFEKPVPLSLTIK; Peptide with targeting and/or antimicrobial activity)”: the “Target(s) (microorganisms bound by the targeting peptide)” value in the assay on bacteria is “S. epidermidis and E. coli and P. aeruginosa and MRSA and E. faecalis and C. jejuni”. Besides, the “Organism, effect” value is reported as “E. coli (R)” in the assay on microorganisms (E. coli), “E. faecalis (C)” in the assay with microorganisms (E. faecalis), “MRSA (C)” in the assay with microorganisms (MRSA) and “S. epidermidis (C)” with microorganisms (S. epidermidis).
Turning to “PF-403 (LLSTEQLLKYYDGETFDGFQLPSNE; Peptide with targeting and/or antimicrobial activity)”, the “Target(s) (microorganisms bound by the targeting peptide)” value in the assay on bacteria is “E. coli; also recorded: P. aeruginosa; also recorded: S. pneumoniae; also recorded: E. faecalis; also recorded: C. jeikeium; also recorded: C. jejuni”. Further, the “Organism, effect” value in the assay on microorganisms (E. coli) is reported as “E. coli (R)”; in the assay with microorganisms (MRSA) it was “MRSA (M)”; in the assay with microorganisms (S. epidermidis), “S. epidermidis (M)”.
In the case of “PF-404 (VLYFQATVV; Peptide with targeting and/or antimicrobial activity)”, the “Target(s) (microorganisms bound by the targeting peptide)” value with bacteria is “S. epidermidis; also recorded: E. coli; also recorded: P. aeruginosa; also recorded: E. faecalis; also recorded: C. jeikeium; also recorded: C. jejuni”. Besides, the “Organism, effect” value in the assay on microorganisms (MRSA) was “MRSA (M)”; in the assay on microorganisms (S. epidermidis) it was “S. epidermidis (M)”.
On to “PF-405 (LVRIEVDDLEEWYERNFI; Peptide with targeting and/or antimicrobial activity)”, for which the “Target(s) (microorganisms bound by the targeting peptide)” value in the assay on bacteria is listed as “S. epidermidis; also recorded: E. coli; also recorded: E. faecalis”. For the same substance, the “Organism, effect” value in the assay with microorganisms (MRSA) was “MRSA (M)”.
“PF-406 (YLEMNADYLSNMDIFDELWEKYLENNK; Peptide with targeting and/or antimicrobial activity)”: the “Target(s) (microorganisms bound by the targeting peptide)” value in the assay with bacteria is recorded as “E. coli; also recorded: C. jejuni”. The “Organism, effect” value was “MRSA (M)” with microorganisms (MRSA) and “S. epidermidis (C)” with microorganisms (S. epidermidis).
As for “PF-408 (YCVPLGNMGNMNNKIW; Peptide with targeting and/or antimicrobial activity)”, in the assay on bacteria, the “Target(s) (microorganisms bound by the targeting peptide)” value is “S. epidermidis and E. coli and P. aeruginosa and MRSA and E. faecalis and C. jeikeium and C. jejuni”. In addition, the “Organism, effect” value in the assay with microorganisms (MRSA) is “MRSA (M)”; in the assay on microorganisms (S. epidermidis), “S. epidermidis (M)”.
For “PF-413 (TFAGSIKIGVPDLVHVTFNCKR; Peptide with targeting and/or antimicrobial activity)”, in the assay with bacteria, the “Target(s) (microorganisms bound by the targeting peptide)” value is given as “P. aeruginosa; also recorded: C. albicans; also recorded: C. jejuni”. Besides, the results for the “Organism, effect” value with microorganisms (E. coli), with microorganisms (MRSA) and in the assay on microorganisms (S. epidermidis) were “E. coli (S)”, “MRSA (C)” and “S. epidermidis (C)”, respectively.
Take “PF-414 (LLNKKLE; Peptide with targeting and/or antimicrobial activity)”: the “Target(s) (microorganisms bound by the targeting peptide)” value with bacteria is recorded as “E. coli; also recorded: C. albicans; also recorded: C. jeikeium”. The “Organism, effect” value in the assay on microorganisms (S. pneumoniae) is recorded as “S. pneumoniae (H)”.

The values above are taken from patent US9597407B2, “Targeted antimicrobial moieties” (C3 Jian, Inc., priority 2009, dated 2017).
